The NIST ThermoML archive (doi:10.1016/j.jct.2013.09.043)
Numbers after ± are expanded uncertainties.

Experiment: xn = mol fraction of the nth substance listed
Conditions: 101 kPa, Liquid; for viscosity: Capillary tube (Ostwald / Ubbelohde) method; for mass density: Vibrating tube method

NC=O [formamide] + CC(C)O
Conditions | mass density, 298.15 K [kg/m3] | mass density, 303.15 K [kg/m3] | mass density, 308.15 K [kg/m3] | mass density, 313.15 K [kg/m3] | viscosity, 298.15 K [mPa·s] | viscosity, 303.15 K [mPa·s] | viscosity, 308.15 K [mPa·s] | viscosity, 313.15 K [mPa·s]
x1 = 0.0831 | 797.37 ± 1 | 793.08 ± 1 | 788.56 ± 1 | 783.84 ± 1 | 2.167 ± 0.087 | 1.867 ± 0.075 | 1.623 ± 0.066 | 1.399 ± 0.057
x1 = 0.1563 | 813.03 ± 1 | 808.66 ± 1 | 803.98 ± 1 | 799.2 ± 1 | 2.254 ± 0.091 | 1.948 ± 0.079 | 1.688 ± 0.068 | 1.464 ± 0.059
x1 = 0.2377 | 831.8 ± 1 | 827.33 ± 1 | 822.51 ± 1 | 817.62 ± 1 | 2.382 ± 0.096 | 2.064 ± 0.083 | 1.791 ± 0.072 | 1.567 ± 0.063
x1 = 0.3518 | 860.85 ± 1 | 856.24 ± 1 | 851.26 ± 1 | 846.25 ± 1 | 2.585 ± 0.1 | 2.259 ± 0.091 | 1.974 ± 0.08 | 1.745 ± 0.07
x1 = 0.4403 | 885.89 ± 1 | 881.14 ± 1 | 876.01 ± 1 | 871.03 ± 1 | 2.739 ± 0.11 | 2.409 ± 0.097 | 2.115 ± 0.085 | 1.884 ± 0.076
x1 = 0.5371 | 916.34 ± 1 | 911.48 ± 1 | 906.38 ± 1 | 901.3 ± 1 | 2.888 ± 0.12 | 2.556 ± 0.1 | 2.256 ± 0.091 | 2.026 ± 0.082
x1 = 0.6352 | 950.91 ± 1 | 946.08 ± 1 | 940.93 ± 1 | 935.92 ± 1 | 3.015 ± 0.12 | 2.684 ± 0.11 | 2.371 ± 0.096 | 2.144 ± 0.087
x1 = 0.7388 | 992.47 ± 1 | 987.75 ± 1 | 982.64 ± 1 | 977.69 ± 1 | 3.127 ± 0.13 | 2.789 ± 0.11 | 2.464 ± 0.1 | 2.233 ± 0.09
x1 = 0.8497 | 1043.91 ± 1 | 1039.54 ± 1 | 1034.66 ± 1 | 1029.87 ± 1 | 3.218 ± 0.13 | 2.878 ± 0.12 | 2.541 ± 0.1 | 2.312 ± 0.093
x1 = 0.94 | 1092.69 ± 1 | 1088.45 ± 1 | 1083.96 ± 1 | 1079.51 ± 1 | 3.277 ± 0.13 | 2.939 ± 0.12 | 2.601 ± 0.11 | 2.377 ± 0.096
x1 = 1 | 1129 ± 1 | 1125.1 ± 1 | 1120.98 ± 1 | 1116.85 ± 1 | 3.305 ± 0.13 | 2.975 ± 0.12 | 2.64 ± 0.11 | 2.42 ± 0.098

NC=O [formamide] + CCC(C)O
Conditions | mass density, 298.15 K [kg/m3] | mass density, 303.15 K [kg/m3] | mass density, 308.15 K [kg/m3] | mass density, 313.15 K [kg/m3] | viscosity, 298.15 K [mPa·s] | viscosity, 303.15 K [mPa·s] | viscosity, 308.15 K [mPa·s] | viscosity, 313.15 K [mPa·s]
x1 = 0.0871 | 815.72 ± 1 | 811.44 ± 1 | 807.59 ± 1 | 802.69 ± 1 | 3.039 ± 0.12 | 2.541 ± 0.1 | 2.137 ± 0.087 | 1.81 ± 0.074
x1 = 0.1597 | 827.26 ± 1 | 822.99 ± 1 | 819.07 ± 1 | 814.17 ± 1 | 3.048 ± 0.12 | 2.561 ± 0.1 | 2.158 ± 0.088 | 1.836 ± 0.075
x1 = 0.2462 | 842.51 ± 1 | 838.24 ± 1 | 834.28 ± 1 | 829.39 ± 1 | 3.074 ± 0.12 | 2.601 ± 0.11 | 2.206 ± 0.09 | 1.893 ± 0.077
x1 = 0.3993 | 874.46 ± 1 | 870.19 ± 1 | 866.14 ± 1 | 861.25 ± 1 | 3.178 ± 0.13 | 2.729 ± 0.11 | 2.337 ± 0.095 | 2.037 ± 0.083
x1 = 0.4397 | 884.15 ± 1 | 879.88 ± 1 | 875.81 ± 1 | 870.92 ± 1 | 3.207 ± 0.13 | 2.763 ± 0.11 | 2.372 ± 0.096 | 2.078 ± 0.084
x1 = 0.5567 | 916.06 ± 1 | 911.78 ± 1 | 907.68 ± 1 | 902.82 ± 1 | 3.279 ± 0.13 | 2.855 ± 0.12 | 2.477 ± 0.1 | 2.195 ± 0.089
x1 = 0.6516 | 947.04 ± 1 | 942.76 ± 1 | 938.6 ± 1 | 933.86 ± 1 | 3.318 ± 0.13 | 2.911 ± 0.12 | 2.54 ± 0.1 | 2.272 ± 0.092
x1 = 0.7376 | 980.23 ± 1 | 975.94 ± 1 | 971.72 ± 1 | 967.08 ± 1 | 3.336 ± 0.14 | 2.945 ± 0.12 | 2.582 ± 0.1 | 2.324 ± 0.094
x1 = 0.8512 | 1033.92 ± 1 | 1029.63 ± 1 | 1025.39 ± 1 | 1020.93 ± 1 | 3.34 ± 0.14 | 2.973 ± 0.12 | 2.617 ± 0.11 | 2.371 ± 0.096
x1 = 0.9309 | 1080.54 ± 1 | 1076.36 ± 1 | 1072.19 ± 1 | 1067.81 ± 1 | 3.329 ± 0.14 | 2.98 ± 0.12 | 2.631 ± 0.11 | 2.398 ± 0.097
x1 = 1 | 1129 ± 1 | 1125.1 ± 1 | 1120.98 ± 1 | 1116.85 ± 1 | 3.305 ± 0.13 | 2.975 ± 0.12 | 2.64 ± 0.11 | 2.42 ± 0.098

CCCC(C)O (centres undefined) [pentan-2-ol] + NC=O
Conditions | mass density, 298.15 K [kg/m3] | mass density, 303.15 K [kg/m3] | mass density, 308.15 K [kg/m3] | mass density, 313.15 K [kg/m3] | viscosity, 298.15 K [mPa·s] | viscosity, 303.15 K [mPa·s] | viscosity, 308.15 K [mPa·s] | viscosity, 313.15 K [mPa·s]
x2 = 0 | 805.05 ± 1 | 800.88 ± 1 | 796.89 ± 1 | 792.62 ± 1 | 3.423 ± 0.14 | 2.834 ± 0.12 | 2.348 ± 0.095 | 1.979 ± 0.08
x2 = 0.0823 | 814.65 ± 1 | 810.45 ± 1 | 806.51 ± 1 | 802.09 ± 1 | 3.386 ± 0.14 | 2.811 ± 0.11 | 2.328 ± 0.095 | 1.959 ± 0.08
x2 = 0.1639 | 825.39 ± 1 | 821.13 ± 1 | 817.19 ± 1 | 812.73 ± 1 | 3.363 ± 0.14 | 2.801 ± 0.11 | 2.329 ± 0.095 | 1.973 ± 0.08
x2 = 0.2393 | 836.58 ± 1 | 832.27 ± 1 | 828.29 ± 1 | 823.79 ± 1 | 3.353 ± 0.14 | 2.811 ± 0.11 | 2.348 ± 0.095 | 2.004 ± 0.081
x2 = 0.3541 | 856.48 ± 1 | 852.09 ± 1 | 848.01 ± 1 | 843.52 ± 1 | 3.379 ± 0.14 | 2.864 ± 0.12 | 2.409 ± 0.098 | 2.075 ± 0.084
x2 = 0.4444 | 875.19 ± 1 | 870.77 ± 1 | 866.59 ± 1 | 862.13 ± 1 | 3.402 ± 0.14 | 2.911 ± 0.12 | 2.468 ± 0.1 | 2.144 ± 0.087
x2 = 0.5612 | 904.57 ± 1 | 900.13 ± 1 | 895.87 ± 1 | 891.4 ± 1 | 3.422 ± 0.14 | 2.964 ± 0.12 | 2.544 ± 0.1 | 2.237 ± 0.091
x2 = 0.6497 | 932.05 ± 1 | 927.6 ± 1 | 923.33 ± 1 | 918.86 ± 1 | 3.431 ± 0.14 | 2.989 ± 0.12 | 2.587 ± 0.11 | 2.298 ± 0.093
x2 = 0.7431 | 967.72 ± 1 | 963.24 ± 1 | 959 ± 1 | 954.54 ± 1 | 3.42 ± 0.14 | 3.003 ± 0.12 | 2.615 ± 0.11 | 2.343 ± 0.095
x2 = 0.8502 | 1020.4 ± 1 | 1016.03 ± 1 | 1011.79 ± 1 | 1007.32 ± 1 | 3.384 ± 0.14 | 3.001 ± 0.12 | 2.628 ± 0.11 | 2.38 ± 0.096
x2 = 0.9398 | 1079.03 ± 1 | 1074.66 ± 1 | 1070.45 ± 1 | 1066.08 ± 1 | 3.341 ± 0.14 | 2.988 ± 0.12 | 2.635 ± 0.11 | 2.403 ± 0.097
